Tested on: Pseudomonas aeruginosa ATCC 27853
Assay: Minimal inhibitory concentration (MIC) by serial 1:2 dilutions
Format: cell-based
Conditions: MIC = greatest dilution at which 100% of a starting culture of 1 × 10^6 bacteria are killed

Sodium Chlorite [0.5% Sodium Chlorite]
MIC against Pseudomonas aeruginosa ATCC 27853: ⅛

Source: patent US20210244029A1, “ANTIMICROBIAL COMPOSITIONS” (Aseptic Health, LLC, priority 2019, published 2021)
